Data on 1 compound can be found in patent US9968636B2, “Peritoneal dialysis fluid comprising a GSK-3 inhibitor” (ZYTOPROTEC GMBH, priority 2011, dated 2018).

Entries after “also recorded” stand apart in the source; their conditions may differ.

Experiment [1] deals with human Met-5a cell line (mesothelial cells). Put plainly: LDH release into the supernatant after PD fluid exposure. It is filed as cell-based. The conditions noted are these: for LDH levels: icodextrin-based fluid. The method, then: (§1) The human Met-5a cell line was purchased from American Type Culture Collection (ATCC, Rockville, Md.). All cells were cultured in M199 culture medium supplemented with L-glutamine (0.1 g/L), penicillin (100 U/mL), streptomycin (100 μg/mL), 10% fetal bovine serum (FBS) and propagated at 37° C. in a humidified air containing 5% CO2 incubator. Standard chemicals were purchased from Sigma-Aldrich (St. Louis, Mo., USA) unless otherwise stated. Falcon™ tissue culture plastics (Becton Dickinson, Franklin Lakes, N.J., USA) were used for all cell culture procedures.
(§2) PDF exposure model: confluent cultures on 12-well plates were exposed for the indicated times (30 min or 1 h) to the PD fluid solution or kept in parallel in control medium. For HSF-1 activity assay, cells were harvested and lysed immediately after exposure times, whereas for measurements of LDH and HSP-72, p-GSK-3β Western blot analysis, cells were allowed to recover by incubation with normal culture medium containing 10% FBS for 16 h.
For LDH analyses, 200 μL aliquots of supernatants were removed after the described experimental setup and kept on −20° C. until analyzed within 48 h. Measurements were performed in duplicates with Sigma TOX-7 LDH Kit according to the manufacturer's instructions. LDH efflux was normalized for protein content.
On the technique in general: LDH in the medium is a marker of cell lysis.

The test system is the same in experiment [2]. Put plainly: Cell viability by neutral red uptake after PD fluid exposure. The conditions noted are these: 10 mM LiCl; low pH glucose-based or icodextrin-based PD fluids; 1 h exposure, 16 h recovery; FIG. 3. The protocol: as §1, §2
To assess cell viability by neutral red uptake, cells were seeded out to 96-well plates and exposed to different treatment protocols as described before. Neutral red uptake was measured using a standard reagent (Sigma-Aldrich, St. Louis, Mo., USA) according to the manufacturer's protocol.

Experiment [3] deals with heat shock factor-1 (HSF-1). Put plainly: HSF-1 activity by Luciferase assay (heat shock element reporter). It counts as cell-based, human. The conditions noted are these: 10 mM LiCl; control cells, glucose-based low pH high GDP and low pH icodextrin-based PD fluids; 30 min exposure, 6 h recovery; FIG. 4. The method, then:
PDF exposure model: confluent cultures on 12-well plates were exposed for the indicated times (30 min or 1 h) to the PD fluid solution or kept in parallel in control medium. […], whereas for measurements of LDH and HSP-72, p-GSK-3β Western blot analysis, cells were allowed to recover by incubation with normal culture medium containing 10% FBS for 16 h.
To determine the specific binding of the heat shock factor-1 (HSF-1), a commercially available Luciferase Reporter Vector (LR0038, Panomics, Italy) containing the heat shock element [5′[…]3′] as well as an empty control vector were transfected into the MeT-5a cells. 24 h prior to transfection, MC were seeded onto 96-well cell culture plates and allowed to reach approximately 80-90% confluence on day of transfection. Before transfection per well 0.15 μl Fugene6 (Roche) transfection reagent and 0.1 μl HSE reporter vector or control vector were each diluted with 5 μl of normal growth medium without FCS and incubated for 5 min. The solutions were mixed incubated for 30 min. Of this mix 10 μl were added to each well incubated for 24 h at 5% CO2 and 37° C. in a humidified atmosphere. […] The luciferase reagent (E1500, Promega) was added using an automatic pipette in 3 s intervals and the yielded signal was measured after 2 min using a luminometer plate reader (Flx800, BioTek).

The test system of experiment [4] is Heat shock protein-72 (HSP-72). Put plainly: HSP-72 expression by Western blot. It is filed as cell-based, human. The protocol: as §2
For western blotting, protein content is determined by the Bradford assay (Biorad, Vienna, Austria) and equal amounts of protein samples (2 μg/lane) are separated by standard SDS-PAGE using a Pharmacia Multiphore II unit. Size-fractionated proteins are then transferred to PVDF membranes by semi-dry transfer in a Pharmacia Multiphore II Novablot unit. Membranes are blocked in 5% dry milk in TBS-Tween (10 mM Tris, 150 mM NaCl, 0.05% Tween 20, pH 7.4). Membranes are incubated with the respective primary antibody (HSP-72, p-GSK-3β) for 16 h. Detection is accomplished by incubation with secondary, peroxidase-coupled antibodies (anti-mouse or anti-rabbit IgG, both Dako Cytomation, Calif., USA) and enhanced chemiluminescence (ECL) using the ECL western blotting analysis system (Renaissance, NEN-Life Science Products, Boston, Mass., USA).

The test system of experiment [5] is mesothelial cells. Put plainly: Light microscopy and vital-dead (live-dead) staining of mesothelial cells. The settings on record: LiCl, low pH glucose-based or icodextrin-based PD fluids, data not shown. It counts as cell-based, human. The protocol: as §2

As for `[Cl-].[Li+]` [LiCl, Lithium-chloride], in experiment [1] (10 mM LiCl added, all PD fluids observed, 1 h exposure, 16 h recovery, vs no LiCl, FIG. 2), the “LDH release (cell injury)” value is given as “decreased LDH release; also recorded: attenuated LDH release”. Moreover, the “protection (LDH release)” value in experiment [1] (10 mM LiCl, incubation with low pH glucose-based and icodextrin-based solutions, FIG. 2) was “most prominent protection”. Further, the LDH levels result is recorded as “did not change significantly” in experiment [1] (1 mM LiCl, FIG. 6); “already decreased” in experiment [1] (2 mM LiCl, FIG. 6); “the decrease was even more significant” in experiment [1] (5 mM LiCl, FIG. 6); “the decrease was even more significant” in experiment [1] (10 mM LiCl, FIG. 6). In addition, in experiment [1] (low pH glucose-based (PDF) fluid, 10 mM LiCl, FIG. 6), the LDH release entry was “significantly reduced”. For the same compound, in experiment [1] (low pH glucose-based (PDF) fluid, LiCl 1 mM to 5 mM, FIG. 6), the “release of LDH into the supernatant” value is on record as “did not alter”. For the same compound, the “number of viable cells (neutral red uptake)” value in experiment [2] was “improved cell viability; also recorded: increased number of viable cells”. Also, the HSF-1 transcriptional activity result in experiment [3] was “significantly increased”. The “level of HSP-72” value in experiment [4] (10 mM LiCl, each incubation setting (glucose-based or icodextrin-based PD fluid, 30 min or 1 h) vs respective untreated cells, FIG. 5) is “significantly increased”. Moreover, in experiment [4] (glucose-based low pH PDF, LiCl 1, 2, 5, 10 mM vs untreated cells, 30 min exposure, 16 h recovery, FIG. 8), the HSP-72 expression result is listed as “increased only after administration of either 2 mM or 10 mM LiCl”. Further, the HSP-72 protein expression entry in experiment [4] (icodextrin-based PD fluid, LiCl 1, 2, 5, 10 mM, 30 min exposure, 16 h recovery, FIG. 8) is reported as “all the applied LiCl doses increased”. Further, in experiment [5], the cell structure result is reported as “preserved cell structure”. Further, the “rate of dead cells” value in experiment [5] (live-dead staining) was “reduced cell death rate; also recorded: reduced rate of dead cells”.
